Results taken from ChEMBL document CHEMBL1240440, “A bioactive labdane diterpenoid from Curcuma amada and its semisynthetic analogues as antitubercular agents” (2010).
In brackets after ≈: the same amount, converted by molar mass.

Test system: Mycobacterium tuberculosis
Test: Antitubercular activity against Mycobacterium tuberculosis H37Rv ATCC 27294 after 24 hrs by BACTEC radiometric susceptibility assay
Format: functional
Details: H37Rv ATCC 27294, 24 h

Row | SMILES | MIC
1 | C=C1CC[C@H]2C(C)(C)CCC[C@]2(C)[C@H]1C/C=C(/CO)CCO | 250 µg/mL (≈ 816 µM)
2 | C=C1CC[C@H]2C(C)(C)CCC[C@]2(C)[C@H]1C/C=C(\CCOC(C)=O)COC(C)=O | > 1000 µg/mL
3 | CO[C@H]1/C=C/O[C@@]2(C)Oc3c(C)c(O)c4c(O)c(c(/C=N/N5CCN(C)CC5)c(O)c4c3C2=O)NC(=O)/C(C)=C\C=C\[C@H](C)[C@H](O)[C@@H](C)[C@@H](O)[C@@H](C)[C@H](OC(C)=O)[C@@H]1C [RIFAMPIN] | 2 µg/mL (≈ 2.43 µM)
4 | CN[C@@H]1[C@H](O[C@H]2[C@H](O[C@H]3[C@H](O)[C@@H](O)[C@H](N=C(N)N)[C@@H](O)[C@@H]3N=C(N)N)O[C@@H](C)[C@]2(O)C=O)O[C@@H](CO)[C@H](O)[C@H]1O [STREPTOMYCIN] | 2 µg/mL (≈ 3.44 µM)
5 | C=C1CC[C@H]2C(C)(C)CCC[C@]2(C)[C@H]1C/C=C(/C=N/O)C/C=N/O | 500 µg/mL (≈ 1500 µM)
6 | C=C1CC[C@H]2C(C)(C)CCC[C@]2(C)[C@H]1C/C=C(/C=O)CC=O | 500 µg/mL (≈ 1650 µM)
